Reference: patent US5707963A, “Methods of using growth inhibitory peptides” (Health Research, Incorporated, priority 1996, dated 1998)
Values joined by “and” are separate entries in the source; they are usually repeats but may differ in a detail not shown here. Identical values can stand only once. Like-named read-outs stand apart in the source and are kept apart here.

Assays:
[1] = test system: diethylstilbestrol (DES)-stimulated growth of mouse uterus; assay: In vivo wet weight bioassay, inhibition of DES-stimulated growth of uteri; settings: for Percent Growth Inhibition: immature mouse uterus
Protocol: An in vivo wet weight bioassay measuring inhibition of diethylstilbestrol (DES)-stimulated growth was also performed. The procedure of Mizejewski et al. (see previous citations) was used for the wet weight assay. The applicability of the wet weight bioassay for measuring DES-stimulated growth of uteri is disclosed by Korach, K. S. et al., "Estrogenic activity in vivo and in vitro of some diethylstilbestrol metabolites and analogs", Proc Natl Acad Sci USA 75:468-471 (1978).
(§1) Briefly, the synthesized powdered peptide was reconstituted in saline (1 mg/ml) to form a stock solution of the GIP. The stock solution was appropriately diluted to provide dosages of 10 ng to 100 μg/mouse. 0.1 ml of the appropriately diluted GIP was injected intraperitoneally into 15-18 day old Nya:NYLAR female mice. Control mice were injected with saline. 1 hour after this first injection, a DES challenge of 0.5 micrograms of DES in 0.1 ml saline was given to determine the change in uterine responsiveness to DES resulting from exposure to the first injection. 23 hours after the second injection, uteri were dissected, trimmed free of connective tissue and immediately weighed. The uterine wet weights were normalized to mouse body weight (mg uterine weight/g of body weight) to compensate for differences in body weight among litters of the same age. Percent inhibition of DES-stimulated uterine growth was calculated as described by Mizejewski et al. (1983).

[2] = test system: estrogen-stimulated growth of mouse uterus; assay type: in vivo
[3] = test system: estrogen-stimulated growth of mouse uterus; assay type: in vivo; remark: listed apart in the source
Protocol: An in vivo wet weight bioassay measuring inhibition of estrogen-stimulated growth of uteri was performed. The procedure of Mizejewski et al. was used for the wet weight assay (see Mizejewski, G. J. et al. (1983); Mizejewski, G. J. et al. (1986); Mizejewski, G. J. and A. S. Warner (1989); Mizejewski, G. J. et al., "Separation of the Estrogen-Activated Growth-Regulatory Forms of Alpha-Fetoprotein in Mouse Amniotic Fluid," Biol of Reprod 42:887-898 (1990); and Allen, S.H.G. et al. (1993)).
as §1, with “25” for “10 ng”, “ng/mouse.” for “μg/mouse.”, “saline or other peptides, including a peptide encoded by a portion of the amino acid sequence of albumin and a random 34 amino acid peptide.” for “saline.”, “an estrogen” for “a DES”, “E2” for “DES”, “estrogen-stimulated” for “DES-stimulated”
Two separate bioassays for inhibition of estrogen-stimulated growth were used. The first was an in vivo bioassay measuring an estrogen-induced increase in wet weight of the immature mouse uterus in a 24-hour determination. Dosages of peptide fragments ranged from 10 to 100 ng, and the %inhibition given in Table 6 represents the peak assay point of the dilution series.

Leu Ser Glu Asp Lys Leu Leu Ala Cys Gly Glu Gly Ala Ala Asp Ile ile Ile Gly His Leu Cys Ile Arg His Glu Met Thr Pro Val Ash Pro Gly Val (LSEDKLLACGEGAADIIIGHLCIRHEMTPVNPGV) [GIP]
inhibition of DES-induced growth (range over Table 3) ([1]; 10ng to 100 μg/mouse): 14-27%
Percent Growth Inhibition ([1]; 10 ng per mouse): 27%
Percent Growth Inhibition ([1]; 100 ng per mouse): 25%
Percent Growth Inhibition ([1]; 800 ng per mouse i.p., DES 0.5 micrograms): 18%
Percent Growth Inhibition ([1]; 1 μg per mouse): 22%
Percent Growth Inhibition ([1]; 10 μg per mouse): 20%
Percent Growth Inhibition ([1]; 100 μg per mouse): 14%
most effective dose ([1]; immature uterus, produced 27% growth inhibition): 10 ng/mouse
activity in adult cycling mice ([2]; adult cycling mice, with and without addition of purified human full-length AFP): active
Percent Growth Inhibition ([2]; adult mouse uterus, 25 ng per mouse): 66%
Percent Growth Inhibition ([2]; adult mouse uterus, 100 ng per mouse, added human AFP): 79%
inhibition of estrogen-stimulated growth ([2]; adult mouse uterus, peptide diluted 2,000-fold or more): 80%
inhibition of estrogen-stimulated growth (range over Table 1) ([3]; 25 to 100 ng/mouse, immature and adult mouse uterus): 33-79%
Percent Growth Inhibition ([3]; immature mouse uterus, 25 ng per mouse i.p., E2 challenge 0.5 micrograms): 33%
Percent Growth Inhibition ([3]; immature mouse uterus, 25 ng per mouse, added human AFP): 42%
Percent Growth Inhibition ([3]; immature mouse uterus, 50 ng per mouse i.p., E2 challenge 0.5 micrograms): 38% and 37% and 30-40%
Percent Growth Inhibition ([3]; immature mouse uterus, 100 ng per mouse i.p., E2 challenge 0.5 micrograms): 35%
inhibition of estrogen-stimulated growth ([3]; immature mouse uterus, peptide diluted 2,000-fold or more): 30-40%
dose with demonstrable activity without E2 activation prior to inoculation ([3]; mouse contains the circulating ligand (estrogen)): 100 ng/mouse
